Among the test systems are HOP-92 NSCLC; K-562 leukemia; M14 melanoma; MALME-3M melanoma; MOLT-4 leukemia; SR leukemia; U251 CNS; HS 578T breast; MDA-MB-231 breast; RPMI-8226 leukemia.
Assay in all cases: growth of human tumour cells (NCI), 48 h

SMILES strings stand for the structures.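 These data come from cells grown in 96-well plates and exposed to compound for 48 hours at five concentrations. GI50 marks 50% less growth. TGI denotes the concentration required for complete inhibition of growth.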

The source of these data is PubChem BioAssay (NCI).

With `NNC(=S)N/N=C(/C(=O)Nc1cc(Cl)ccc1Cl)C1C(=O)Nc2ccccc2S1=O` (stereo not drawn), the TGI in the test with HOP-92 NSCLC, in the test with K-562 leukemia, in the test on M14 melanoma, in the test with MALME-3M melanoma, in the test on MOLT-4 leukemia and with SR leukemia was greater than 100 µM throughout. Also, the TGI in the test with U251 CNS is greater than 100 µM.
On to `Oc1ccc(O)c(-c2cc(-c3ccccc3)nn2-c2ccccc2)c1`, for which the GI50 in the test on HOP-92 NSCLC was 88.9 µM; with HS 578T breast, 19.6 µM; with K-562 leukemia, 21.7 µM; in the test on M14 melanoma, 12.4 µM; in the test on MDA-MB-231 breast it was 30.3 µM; with MOLT-4 leukemia it was 60.5 µM. Further, the GI50 in the test with U251 CNS was 5.7 µM. Also, the TGI in the test on HOP-92 NSCLC is greater than 100 µM; in the test with HS 578T breast, 68 µM; in the test on K-562 leukemia, greater than 100 µM; in the test with M14 melanoma it was 25.4 µM; in the test with MDA-MB-231 breast it was greater than 100 µM; in the test on MOLT-4 leukemia, greater than 100 µM. In the test with U251 CNS, this compound yielded a TGI of 19.9 µM.
In the case of `C[C@]12CCc3nonc3C1CC[C@@H]1C2CC[C@]2(C)NC(=O)CCC12` (stereo partly drawn), the TGI with HOP-92 NSCLC, in the test on K-562 leukemia, with M14 melanoma, in the test on MALME-3M melanoma, in the test on MOLT-4 leukemia and with RPMI-8226 leukemia was greater than 100 µM each time. For the same compound, in the test with U251 CNS, the TGI was greater than 100 µM.
As for `O=C1OCCC1C(O)C1c2ccccc2-c2ccccc21` (stereo not drawn), the TGI with HOP-92 NSCLC, in the test on K-562 leukemia, with M14 melanoma, in the test on MALME-3M melanoma, with MOLT-4 leukemia and in the test on RPMI-8226 leukemia was greater than 100 µM throughout. For the same compound, the TGI in the test on SR leukemia and in the test with U251 CNS was greater than 100 µM in each case.
Turning to `CN[C@@H](C)[C@@H](N)c1ccccc1`, the TGI with HOP-92 NSCLC, in the test on K-562 leukemia, in the test on M14 melanoma, in the test on MALME-3M melanoma, with MOLT-4 leukemia and in the test on RPMI-8226 leukemia was greater than 100 µM throughout. For the same compound, in the test on U251 CNS, the TGI is greater than 100 µM.
In the case of `O=C1c2ccccc2C(=O)c2c(NCCNCCO)ccc(O)c21`, the TGI in the test on HOP-92 NSCLC is 13.4 µM; in the test with K-562 leukemia it was greater than 100 µM; in the test with M14 melanoma, 15.8 µM; with MALME-3M melanoma, 11.7 µM; in the test on MOLT-4 leukemia, 7.49 µM; in the test with RPMI-8226 leukemia it was 11.7 µM. This compound showed a TGI in the test on U251 CNS of 14.7 µM.
Consider `O=c1cccccc1NCCCCCCNc1cccccc1=O`, for which the TGI in the test on K-562 leukemia, in the test on M14 melanoma, in the test on MALME-3M melanoma, with MOLT-4 leukemia, in the test on RPMI-8226 leukemia and in the test on U251 CNS was greater than 100 µM each time.
As for `CC(=O)O[C@]1(C)OC(=O)[C@@H](C)N1[N+](=O)[O-]`, the TGI with K-562 leukemia, in the test with M14 melanoma, with MALME-3M melanoma, with MOLT-4 leukemia, in the test with RPMI-8226 leukemia and in the test with SR leukemia was greater than 100 µM in each case. This compound also registered a TGI in the test with U251 CNS greater than 100 µM.
For the compound `CC1(C)CCc2cc3c(cc2O1)OCC1c2cc4c(cc2OC31)OCO4` (stereo not drawn), the TGI in the test with HOP-92 NSCLC, in the test on K-562 leukemia, in the test with M14 melanoma, in the test with MALME-3M melanoma, with MOLT-4 leukemia and in the test with RPMI-8226 leukemia was greater than 100 µM throughout. The TGI in the test with SR leukemia and with U251 CNS was greater than 100 µM in each case.
As for `COc1ccc(N=Nc2c(-c3ccccc3)nn(C(=O)CC(=O)Nc3cccc(Cl)c3)c2-c2ccccc2)cc1`, the TGI with HOP-92 NSCLC, with K-562 leukemia, in the test on MALME-3M melanoma, in the test with MOLT-4 leukemia, in the test on RPMI-8226 leukemia and in the test with U251 CNS was greater than 100 µM in each case.
For the compound `O=C(c1cc2ccccc2o1)N(Cc1ccccc1)c1ccccc1`, the TGI came out at 44 µM in the test with HOP-92 NSCLC; 40 µM in the test with K-562 leukemia; 38.9 µM with M14 melanoma; 59.8 µM in the test with MALME-3M melanoma; 39.9 µM with MOLT-4 leukemia; 49.8 µM in the test with RPMI-8226 leukemia. The compound also showed a TGI in the test on SR leukemia of 68.4 µM.
With `CCSC1(SCC)CC(Cc2ccc(OC)cc2)N(C=NC(C)(C)C)C1` (stereo not drawn), the TGI came to 25 µM in the test on HOP-92 NSCLC; 53.8 µM with K-562 leukemia; 32.2 µM with M14 melanoma; 37.5 µM with MALME-3M melanoma; 40.9 µM in the test on MOLT-4 leukemia; 34.2 µM with SR leukemia. The TGI with U251 CNS stood at 62.7 µM.
In the case of `CCOC(=O)C1=C(O)CSC1=Nc1ccccc1`, the TGI in the test on HOP-92 NSCLC, in the test with K-562 leukemia, in the test with M14 melanoma, in the test with MALME-3M melanoma, in the test with MOLT-4 leukemia and in the test on RPMI-8226 leukemia was greater than 100 µM each time. In addition, in the test on SR leukemia, the TGI is greater than 100 µM.
As for `CCOc1cc2c(cc1O)/C(=N\O)C[C@@H]1[C@@H]2CC[C@]2(C)[C@@H](O)CC[C@@H]12`, the GI50 is 14.8 µM with HOP-92 NSCLC; 0.0271 µM with HS 578T breast; 0.00978 µM with K-562 leukemia; 0.041 µM in the test on M14 melanoma; 0.0324 µM in the test on U251 CNS. Besides, the TGI with HOP-92 NSCLC is greater than 100 µM; in the test on HS 578T breast, greater than 82.9 µM; in the test on K-562 leukemia, greater than 94.1 µM; with M14 melanoma, greater than 100 µM; in the test on MOLT-4 leukemia, 0.977 µM; in the test on RPMI-8226 leukemia, 0.0632 µM. The TGI in the test with U251 CNS is greater than 100 µM.
Turning to `CC(C)(C)CC(C)(C)c1cc2c(O)c(c1)Cc1cc(C(C)(C)CC(C)(C)C)cc(c1O)Cc1cc(C(C)(C)CC(C)(C)C)cc(c1O)Cc1cc(C(C)(C)CC(C)(C)C)cc(c1O)Cc1cc(C(C)(C)CC(C)(C)C)cc(c1O)Cc1cc(C(C)(C)CC(C)(C)C)cc(c1O)C2`, the TGI with HOP-92 NSCLC, in the test on K-562 leukemia, in the test with M14 melanoma, in the test with MALME-3M melanoma, in the test with MOLT-4 leukemia and in the test on RPMI-8226 leukemia was greater than 100 µM in each case. The TGI with U251 CNS is greater than 100 µM.
Take `COc1ccc2nc3cc(Cl)ccc3c(N3CCN(c4ccnc(N5CCOCC5)n4)CC3)c2c1`: the GI50 in the test with HOP-92 NSCLC is 11.5 µM; in the test on HS 578T breast, 12.3 µM; with K-562 leukemia it was 2.91 µM; in the test with M14 melanoma, greater than 100 µM; in the test with MALME-3M melanoma it was greater than 100 µM; with MOLT-4 leukemia it was 6.24 µM. The GI50 with RPMI-8226 leukemia was 2.92 µM; with SR leukemia, 3.29 µM; in the test with U251 CNS it was greater than 100 µM. The TGI with HOP-92 NSCLC, in the test with HS 578T breast, with K-562 leukemia, in the test on M14 melanoma, with MALME-3M melanoma and with MOLT-4 leukemia was greater than 100 µM throughout. The figures for the TGI with RPMI-8226 leukemia, in the test on SR leukemia and with U251 CNS were 10.6 µM, greater than 100 µM and greater than 100 µM, respectively.
On to `O=C(CCCN1CCOCC1)Nc1ccc(Cn2nnc3c2C(=O)c2nnn(Cc4ccc(NC(=O)CCCN5CCOCC5)cc4)c2C3=O)cc1`, for which the GI50 in the test on HOP-92 NSCLC was 2.54 µM; in the test with HS 578T breast, 2.79 µM; with K-562 leukemia, 4.28 µM; in the test on M14 melanoma, 4.59 µM; in the test with MALME-3M melanoma, 1.21 µM; in the test with MOLT-4 leukemia it was 1.61 µM. For the same compound, the values for the GI50 with RPMI-8226 leukemia, with SR leukemia and with U251 CNS were 2.18 µM, 2.05 µM and 1.95 µM, respectively. In addition, the TGI in the test with HOP-92 NSCLC was 5.04 µM; in the test on HS 578T breast, 7.76 µM; in the test on K-562 leukemia, greater than 100 µM; in the test with M14 melanoma it was 43.6 µM; in the test with MALME-3M melanoma, 2.79 µM; in the test on MOLT-4 leukemia, 4.85 µM. Also, the TGI in the test on RPMI-8226 leukemia amounted to 7.48 µM; with SR leukemia it was 7.86 µM; in the test on U251 CNS, 3.74 µM.
For `O=C1N(c2ccccc2)C(=O)C2(SC=NN2Cc2ccccc2)N1c1ccccc1` (stereo not drawn), the TGI in the test with HOP-92 NSCLC, in the test with K-562 leukemia, with M14 melanoma, in the test with MALME-3M melanoma, in the test with MOLT-4 leukemia and in the test with SR leukemia was greater than 100 µM in each case. In the test with U251 CNS, this compound showed a TGI greater than 100 µM.
For `COc1ccc(C(=O)C(C(=O)C(=O)Nc2ccc(Cl)c(Cl)c2)c2ccc(OC)cc2)cc1` (stereo not drawn), the TGI in the test with HOP-92 NSCLC, in the test with K-562 leukemia, with M14 melanoma, with MALME-3M melanoma, in the test on MOLT-4 leukemia and with RPMI-8226 leukemia was greater than 100 µM each time. The compound further registered a TGI with U251 CNS greater than 100 µM.
Turning to `CC/C(=C(/CC)c1ccc([O-])cc1)c1ccc([O-])cc1.CC/C(=C(\CC)c1ccc([O-])cc1)c1ccc([O-])cc1.O=C([CH-]C(=O)c1ccccc1)c1ccccc1.O=C([CH-]C(=O)c1ccccc1)c1ccccc1.O=C([CH-]C(=O)c1ccccc1)c1ccccc1.O=C([CH-]C(=O)c1ccccc1)c1ccccc1.[Ti+4].[Ti+4]`, the GI50 was 19.5 µM in the test with HOP-92 NSCLC; 23.9 µM with K-562 leukemia; 20.7 µM with M14 melanoma; 30.9 µM in the test on MALME-3M melanoma; 27.7 µM with MOLT-4 leukemia; 71.4 µM in the test with RPMI-8226 leukemia. The GI50 in the test with SR leukemia is 58.5 µM; in the test with U251 CNS, 24.9 µM. Moreover, the TGI is 50 µM in the test on HOP-92 NSCLC; greater than 100 µM in the test with K-562 leukemia; 78.8 µM with M14 melanoma; greater than 100 µM in the test with MALME-3M melanoma; greater than 100 µM with MOLT-4 leukemia; greater than 100 µM in the test on RPMI-8226 leukemia. For the same compound, the TGI is greater than 100 µM with SR leukemia and 82 µM in the test with U251 CNS.
